The values that follow come from patent EP1007514B1, “HETEROCYCLIC KETONES AS NPY Y5 ANTAGONISTS” (BAYER CORPORATION, priority 1997, dated 1999).

A value given as a limit tells only on which side of the number the result lay.

Assay [1] deals with T1, rat NPY Y5 receptor subtype (Rattus norvegicus, UniProt Q63634).
T1 sequence (Q63634 1-445): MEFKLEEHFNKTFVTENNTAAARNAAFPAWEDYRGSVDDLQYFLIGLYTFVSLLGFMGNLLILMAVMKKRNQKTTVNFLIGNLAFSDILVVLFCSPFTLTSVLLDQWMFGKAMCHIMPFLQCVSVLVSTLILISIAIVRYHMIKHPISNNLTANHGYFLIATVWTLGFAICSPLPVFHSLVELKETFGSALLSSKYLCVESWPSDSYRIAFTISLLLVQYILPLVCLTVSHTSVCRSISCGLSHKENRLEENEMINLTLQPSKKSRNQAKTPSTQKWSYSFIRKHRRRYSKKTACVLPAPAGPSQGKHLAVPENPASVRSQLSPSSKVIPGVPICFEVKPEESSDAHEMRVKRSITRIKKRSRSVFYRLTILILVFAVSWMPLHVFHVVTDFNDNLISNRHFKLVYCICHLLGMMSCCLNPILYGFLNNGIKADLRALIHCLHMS
Put plainly: NPY Y5 receptor membrane binding, [125I]PYY (rat). To be noted: for IC50: membrane protein, 75-100 pM [125I]PYY, 50% inhibition of specific binding, read-out: IC50 (µM) NPY receptor indicated rY5; for NPY receptor indicated rY5, %@1µM: printed in the rY5 IC50 column. As for the experimental part: (§1) Assays to determine human and rat NPY Y5 receptor subtype binding affinity are performed on GF/C Millipore 96-well plates pretreated with 0.02% polyethylenimine. The binding buffer is 25 mM Tris, 120 mM NaCl, 5 mM KCl, 1.2 mM KH2PO4, 2.5 mM CaCl2, 1.2 mM MgSO4, 0.1% BSA and 0.5 mg/ml bacitracin, pH 7.4. Samples consist of membrane protein, 75-100 pM [^125I] PYY (porcine, NEN-DuPont) and test compounds diluted in binding buffer. Nonspecific binding is defined by 1 µM PYY. After a 2 hour incubation at room temperature with constant mixing, the samples are aspirated on a vacuum manifold and rinsed with ice-cold binding buffer. The amount of radioactivity in each well is quantitated with either gamma counting or liquid scintillation. IC50 values, which correspond to 50% inhibition of specific binding, are determined with non-linear regression analysis.

Assay [2] has as its target T2, human NPY Y2 (Homo sapiens, UniProt P49146).
T2 sequence (P49146 1-381): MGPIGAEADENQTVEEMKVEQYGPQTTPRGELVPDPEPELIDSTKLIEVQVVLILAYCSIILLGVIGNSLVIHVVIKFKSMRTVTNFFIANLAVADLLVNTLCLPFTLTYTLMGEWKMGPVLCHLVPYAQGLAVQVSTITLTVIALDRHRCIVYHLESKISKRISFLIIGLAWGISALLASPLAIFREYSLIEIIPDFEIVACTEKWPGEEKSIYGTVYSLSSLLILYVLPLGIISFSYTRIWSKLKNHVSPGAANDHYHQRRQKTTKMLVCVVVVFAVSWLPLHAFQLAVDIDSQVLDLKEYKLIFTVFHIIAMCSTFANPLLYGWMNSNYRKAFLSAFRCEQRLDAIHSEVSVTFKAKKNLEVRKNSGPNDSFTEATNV
The experiment in a line: NPY Y2 receptor membrane binding, [125I]PYY. The note with it: membrane protein; 25 pM [125I]PYY; test compounds at 5 µM final concentration; read-out: IC50 (µM) NPY receptor indicated hY2. On the procedure:
Assays to determine binding affinity for human NPY Y2 and Y4/PP1 receptor subtypes are performed on GF/C Millipore 96-well plates pretreated with 0.02% polyethylenimine. […] Samples consist of membrane protein, 25 pM [^125I]PYY and test compounds at 5 µM final concentration. Nonspecific binding is defined by 1 µM NPY. The binding buffer for human Y4/PP1 binding consists of 137 mM NaCl, 5.4 mM KCl, 0.44 mM KH2PO4, 1.26 mM CaCl2, 0.81 mM MgSO4, 20 mM HEPES, 1 mM dithiothreitol, 0.1% bacitracin, 100 mg/l streptomycin sulfate, 1 mg/l aprotinin, 10 mg/ml soybean trypsin inhibitor and 0.3% BSA, pH 7.4. Samples consist of membrane protein, 50 pM human [^125I] human PP (hPP:NEN DuPont, Boston MA) and test compounds diluted to a final concentration of 5 µM. One µM hPP is used to define nonspecific binding. After a 2 hour incubation at room temperature with constant mixing, the samples are aspirated on a vacuum manifold, and rinsed with ice-cold binding buffer. The amount of radioactivity in each well is quantitated with either gamma counting or liquid scintillation.

The target in assay [3] is T3, rat NPY Y5 receptor (Rattus norvegicus, UniProt Q63634).
T3 construct: expressed in transfected cells
T3 sequence (Q63634 1-445): T1 sequence (Q63634 1-445)
Put plainly: In vitro functional assay, forskolin-stimulated cAMP in cells stably expressing the receptor. It counts as cell-based. The note with it: percentage of forskolin-stimulated adenylate cyclase; 1 µM forskolin; test compound 10 µM; 80 - 120% indicates no significant agonistic effect. On the procedure:
An in vitro functional assay to determine rat NPY Y5 receptor subtype binding affinity is performed by resuspending cells stably expressing the rat NPY Y5 receptor in serum-free DMEM containing 10 mM HEPES (pH 7.4) and 1 mM isobutylmethylxanthine (IBMX). One µM forskolin and test compounds at a final concentration of 10 µM are then added to the cells. After a 20 minute incubation of the samples at 37°C, the assay is stopped by placing the samples in boiling water for 3 minutes. The cAMP produced in each sample is quantitated with a radioimmunoassay kit (NEN DuPont). Data are expressed as a percentage of forskolin-stimulated adenylate cyclase. Data between 80 - 120% indicates no significant agonistic effect.

Assay [4] addresses human Y4/PP1 (Homo sapiens, UniProt P50391). The experiment in a line: NPY Y4/PP1 receptor membrane binding, [125I] human PP. The note with it: membrane protein; 50 pM [125I] human PP; test compounds at 5 µM final concentration; read-out: IC50 (µM) NPY receptor indicated hY4/pp1. As for the experimental part: Assays to determine binding affinity for human NPY Y2 and Y4/PP1 receptor subtypes are performed on GF/C Millipore 96-well plates pretreated with 0.02% polyethylenimine. The binding buffer for rat NPY Y2 receptor subtype binding is Krebs-Ringer bicarbonate (pH 7.4) containing 0.01% BSA and 0.005% bacitracin. Samples consist of membrane protein, 25 pM [^125I]PYY and test compounds at 5 µM final concentration. Nonspecific binding is defined by 1 µM NPY. The binding buffer for human Y4/PP1 binding consists of 137 mM NaCl, 5.4 mM KCl, 0.44 mM KH2PO4, 1.26 mM CaCl2, 0.81 mM MgSO4, 20 mM HEPES, 1 mM dithiothreitol, 0.1% bacitracin, 100 mg/l streptomycin sulfate, 1 mg/l aprotinin, 10 mg/ml soybean trypsin inhibitor and 0.3% BSA, pH 7.4. Samples consist of membrane protein, 50 pM human [^125I] human PP (hPP:NEN DuPont, Boston MA) and test compounds diluted to a final concentration of 5 µM. One µM hPP is used to define nonspecific binding. After a 2 hour incubation at room temperature with constant mixing, the samples are aspirated on a vacuum manifold, and rinsed with ice-cold binding buffer. The amount of radioactivity in each well is quantitated with either gamma counting or liquid scintillation.

Assay [5] has as its target T4, human NPY Y1 receptor subtype (Homo sapiens, UniProt P25929).
T4 construct: host or cells: SK-N-MC cells
T4 sequence (P25929 1-384): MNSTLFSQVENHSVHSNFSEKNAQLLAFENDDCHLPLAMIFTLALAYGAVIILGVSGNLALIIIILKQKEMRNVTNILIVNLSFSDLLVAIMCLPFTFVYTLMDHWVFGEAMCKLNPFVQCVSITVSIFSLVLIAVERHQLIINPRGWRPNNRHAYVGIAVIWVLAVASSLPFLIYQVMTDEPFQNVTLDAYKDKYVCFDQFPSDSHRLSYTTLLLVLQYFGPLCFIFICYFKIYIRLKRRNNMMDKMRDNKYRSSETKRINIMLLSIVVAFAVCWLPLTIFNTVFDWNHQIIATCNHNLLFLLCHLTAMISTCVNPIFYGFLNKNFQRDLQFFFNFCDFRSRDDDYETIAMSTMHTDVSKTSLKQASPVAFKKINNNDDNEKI
Put plainly: NPY Y1 receptor binding, [125I]PYY on SK-N-MC cells. To be noted: test compounds at 5 µM final concentration, [125I]PYY about 50 pM, read-out: IC50 (µM) NPY receptor indicated hY1. On the procedure: For instance, test compounds antagonistic to human NPY Y1 receptor subtype can be identified by a modified method of Gordon et al., J. Neurochem. 55:506-513,(1990), wherein SK-N-MC cells (ATCC, Rockville, ND) are plated in 24-well plates. Once confluent, the cells are rinsed with Dulbecco's phosphate buffered saline (DPBS). Cells are then preincubated in binding buffer containing serum-free DMEM, 25 mM HEPES (pH 7.3), 0.5% bovine serum albumin (BSA), 0.1% bacitracin and 0.1mM phenylmethylsulfonyl fluoride for 30 minutes at room temperature. Test compounds at a final concentration of 5 µM, and [^125I] PYY (about 50 pM:NEN-DuPont) are added to the wells, and the cells are incubated for an additional 3 hours at room temperature, followed by rinsing with ice-cold DPBS. Nonspecific binding is defined with 1 µM NPY. After lysing the cells with 1% Triton X-100, the amount of radioactivity in the lysates is quantitated with a gamma counter.

Assay [6] concerns the target T5, human NPY Y5 receptor subtype (Homo sapiens, UniProt Q15761).
T5 sequence (Q15761 1-445): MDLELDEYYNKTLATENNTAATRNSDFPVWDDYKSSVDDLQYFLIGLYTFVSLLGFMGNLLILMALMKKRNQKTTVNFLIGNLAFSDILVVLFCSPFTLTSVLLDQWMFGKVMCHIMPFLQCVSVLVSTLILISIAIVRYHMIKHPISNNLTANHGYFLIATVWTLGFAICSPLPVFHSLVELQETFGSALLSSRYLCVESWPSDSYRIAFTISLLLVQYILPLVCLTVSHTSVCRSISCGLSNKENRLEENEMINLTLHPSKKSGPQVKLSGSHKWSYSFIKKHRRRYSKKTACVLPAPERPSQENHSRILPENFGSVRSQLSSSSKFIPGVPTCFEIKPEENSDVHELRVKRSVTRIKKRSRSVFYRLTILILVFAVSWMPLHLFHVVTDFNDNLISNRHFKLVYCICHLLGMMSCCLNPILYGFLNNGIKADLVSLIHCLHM
Put plainly: NPY Y5 receptor membrane binding, [125I]PYY (human). To be noted: membrane protein; 75-100 pM [125I]PYY; 50% inhibition of specific binding; read-out: IC50 (µM) NPY receptor indicated hY5. On the procedure: as §1

Chain of human Y4/PP1 (P50391 whole entry): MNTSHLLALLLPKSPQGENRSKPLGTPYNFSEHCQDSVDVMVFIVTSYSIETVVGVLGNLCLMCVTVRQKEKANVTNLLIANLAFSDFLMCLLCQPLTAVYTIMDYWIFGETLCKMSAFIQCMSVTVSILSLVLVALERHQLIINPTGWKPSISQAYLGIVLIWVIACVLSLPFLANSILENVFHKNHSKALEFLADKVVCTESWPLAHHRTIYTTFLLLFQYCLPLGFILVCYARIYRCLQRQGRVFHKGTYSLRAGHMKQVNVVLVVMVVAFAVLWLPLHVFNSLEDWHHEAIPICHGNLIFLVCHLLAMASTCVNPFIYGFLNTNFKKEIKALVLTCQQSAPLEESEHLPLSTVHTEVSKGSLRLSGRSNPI

`Cc1ccc(S(=O)(=O)CC(C(=O)c2ccc3ccccc3n2)c2ccccc2)cc1` (centres unmarked) [Compound 1]: the IC50 is 9.8 µM in assay [1], > 5 µM in assay [2], > 5 µM in assay [4] and > 5 µM in assay [5]. Moreover, in assay [3], the “% forskolin at 10 µM” value was 78%.

`Cc1ccc(S(=O)(=O)CC(C(=O)c2ncc[nH]2)c2ccccc2)cc1` (centres unmarked) [Compound 3, (1H-Imidazol-2-yl)-2-phenyl-3-(toluene-4-sulfonyl)-propan-1-one]: the “NPY receptor indicated rY5, %@1µM” value in assay [1] is 30%@1µM. The IC50 in assay [2] and in assay [4] was > 5 µM throughout.

`Cc1ccc(SCC(C(=O)c2nc3ccccc3[nH]2)c2ccccc2)cc1` (centres unmarked) [Compound 4, (1H-Benzoimidazol-2-yl)-2-phenyl-3-p-tolylsulfanyl-propan-1-one]: in assay [1], the “NPY receptor indicated rY5, %@1µM” value was found to be 2%@1µM. The IC50 in assay [2] and in assay [4] was > 5 µM throughout.

Regarding `Cc1ccc([S+]([O-])CC(C(=O)c2nc3ccccc3[nH]2)c2ccccc2)cc1` (centres unmarked) [Compound 5, (1H-Benzoimidazol-2-yl)-2-phenyl-3-(toluene-4-sulfinyl)-propan-1-one], the IC50 in assay [1] is 0.025 µM; in assay [2], > 5 µM; in assay [4], > 5 µM; in assay [6], 0.025 µM.

Turning to `Cc1ccc(S(=O)(=O)CC(C(=O)c2nc3ccccc3[nH]2)c2ccc(F)cc2)cc1` (centres unmarked) [Compound 9, 1-(1H-Benzoimidazol-2-yl)-2-(4-fluoro-phenyl)-3-(toluene-4-sulfonyl)-propan-1-one], the IC50 in assay [1] was 0.014 µM; in assay [4], > 5 µM; in assay [6] it was 0.015 µM; in assay [5], > 5 µM. Moreover, the “% forskolin at 10 µM” value in assay [3] was determined as 105%.

As for `O=C(c1nc2ccccc2[nH]1)C(CS(=O)(=O)c1ccc(Br)cc1)c1ccccc1` (centres unmarked) [Compound 11, 1-(1H-Benzoimidazol-2-yl)-3-(4-bromo-benzenesulfonyl)-2-phenyl-propan-1-one], the IC50 is > 5 µM in assay [2], > 5 µM in assay [4] and 0.008 µM in assay [6].

With `O=C(c1nc2ccccc2[nH]1)C(CS(=O)(=O)c1cccc2ccccc12)c1ccccc1` (centres unmarked) [Compound 12, 1-(1H-Benzoimidazol-2-yl)-3-(naphthalene-1-sulfonyl)-2-phenyl-propan-1-one], the IC50 in assay [2] was > 5 µM; in assay [4], > 5 µM; in assay [6] it was 0.011 µM; in assay [5], > 5 µM.

For `Cc1ccc(S(=O)(=O)CC(C(=O)c2nc3cc(C)ccc3[nH]2)c2ccccc2)cc1` (centres unmarked) [Compound 13, (5-Methyl-1H-benzoimidazol-2-yl)-2-phenyl-3-(toluene-4-sulfonyl)-propan-1-one], the IC50 is 0.036 µM in assay [1], > 5 µM in assay [2], > 5 µM in assay [4] and 0.045 µM in assay [6].

For the compound `Cc1ccc(S(=O)(=O)CC(C(=O)c2nc3ccccc3[nH]2)c2ccccc2)cc1` (centres unmarked) [Compound 15, 1-(1H-Benzoimidazol-2-yl)-2-phenyl-3-(toluene-4-sulfonyl)-propan-1-one], the IC50 in assay [2] is > 5 µM; in assay [4], > 5 µM; in assay [6] it was 0.005 µM; in assay [5], > 5 µM.
